In patent publication US10844057B2, “Process for preparing JAK inhibitors and intermediates thereof” (priority 2018, dated 2020):
Where two headings read alike, the source gives them in different places.

Experiments:
[1] = biological target: JAK1 (Homo sapiens (Human), UniProt P23458); test: Biochemical JAK kinase assay (LanthaScreen), JAK1; conditions: converted from pIC50 using Cheng-Prusoff; ATP 25 μM
Experimental: (§1) Assay 1: Biochemical JAK Kinase Assays
(§2) A panel of four LanthaScreen JAK biochemical assays (JAK1, 2, 3 and Tyk2) were carried in a common kinase reaction buffer (50 mM HEPES, pH 7.5, 0.01% Brij-35, 10 mM MgCl2, and 1 mM EGTA). Recombinant GST-tagged JAK enzymes and a GFP-tagged STAT1 peptide substrate were obtained from Life Technologies.
(§3) Serially diluted compounds were pre-incubated with each of the four JAK enzymes and the substrate in white 384-well microplates (Corning) at ambient temperature for 1 h. ATP was subsequently added to initiate the kinase reactions in 10 μL total volume, with 1% DMSO. […] Kinase reactions were allowed to proceed for 1 hour at ambient temperature before a 10 μL preparation of EDTA (10 mM final concentration) and Tb-anti-pSTAT1 (pTyr701) antibody (Life Technologies, 2 nM final concentration) in TR-FRET dilution buffer (Life Technologies) was added. The plates were allowed to incubate at ambient temperature for 1 h before being read on the EnVision reader (Perkin Elmer). Emission ratio signals (520 nm/495 nm) were recorded and utilized to calculate the percent inhibition values based on DMSO and background controls.
(§4) For dose-response analysis, percent inhibition data were plotted vs. compound concentrations, and IC50 values were determined from a 4-parameter robust fit model with the Prism software (GraphPad Software). Results were expressed as pIC50 (negative logarithm of IC50) and subsequently converted to pKi (negative logarithm of dissociation constant, Ki) using the Cheng-Prusoff equation.

[2] = biological target: JAK3 (Homo sapiens (Human), UniProt P52333); test: Biochemical JAK kinase assay (LanthaScreen), JAK3; conditions: converted from pIC50 using Cheng-Prusoff; ATP 1.6 μM
Sequence of JAK3 (P52333 whole entry): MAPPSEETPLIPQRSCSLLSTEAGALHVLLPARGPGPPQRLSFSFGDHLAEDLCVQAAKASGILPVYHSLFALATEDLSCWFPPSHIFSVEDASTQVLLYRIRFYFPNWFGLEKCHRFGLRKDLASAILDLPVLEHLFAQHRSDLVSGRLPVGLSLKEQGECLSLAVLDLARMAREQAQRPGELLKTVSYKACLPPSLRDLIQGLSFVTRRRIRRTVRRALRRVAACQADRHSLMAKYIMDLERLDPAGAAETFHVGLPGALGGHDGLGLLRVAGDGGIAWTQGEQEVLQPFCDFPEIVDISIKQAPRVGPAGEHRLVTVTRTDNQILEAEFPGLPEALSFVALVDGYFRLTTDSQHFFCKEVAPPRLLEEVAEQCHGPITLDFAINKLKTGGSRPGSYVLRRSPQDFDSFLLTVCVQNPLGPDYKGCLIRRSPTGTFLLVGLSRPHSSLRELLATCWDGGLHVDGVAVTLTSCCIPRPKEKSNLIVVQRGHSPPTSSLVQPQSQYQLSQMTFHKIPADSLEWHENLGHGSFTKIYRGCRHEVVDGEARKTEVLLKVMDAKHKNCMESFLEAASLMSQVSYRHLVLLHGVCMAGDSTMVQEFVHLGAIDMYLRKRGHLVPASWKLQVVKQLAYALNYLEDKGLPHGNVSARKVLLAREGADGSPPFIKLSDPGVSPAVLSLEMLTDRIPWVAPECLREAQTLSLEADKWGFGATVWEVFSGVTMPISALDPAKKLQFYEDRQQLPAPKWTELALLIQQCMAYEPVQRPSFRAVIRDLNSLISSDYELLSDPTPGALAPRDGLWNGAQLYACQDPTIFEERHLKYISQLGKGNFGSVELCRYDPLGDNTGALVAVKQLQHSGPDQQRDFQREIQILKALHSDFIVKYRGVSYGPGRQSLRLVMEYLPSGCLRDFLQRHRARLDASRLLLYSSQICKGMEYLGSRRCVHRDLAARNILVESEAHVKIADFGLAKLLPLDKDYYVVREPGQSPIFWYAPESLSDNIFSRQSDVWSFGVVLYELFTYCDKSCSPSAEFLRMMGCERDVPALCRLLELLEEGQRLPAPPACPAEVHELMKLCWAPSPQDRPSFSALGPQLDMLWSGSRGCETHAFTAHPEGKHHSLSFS
Experimental: as §1, §2, §3, §4

[3] = biological target: Tyk2 (Homo sapiens (Human), UniProt P29597); test: Biochemical JAK kinase assay (LanthaScreen), Tyk2; conditions: converted from pIC50 using Cheng-Prusoff; ATP 10 μM
Sequence of Tyk2 (P29597 whole entry): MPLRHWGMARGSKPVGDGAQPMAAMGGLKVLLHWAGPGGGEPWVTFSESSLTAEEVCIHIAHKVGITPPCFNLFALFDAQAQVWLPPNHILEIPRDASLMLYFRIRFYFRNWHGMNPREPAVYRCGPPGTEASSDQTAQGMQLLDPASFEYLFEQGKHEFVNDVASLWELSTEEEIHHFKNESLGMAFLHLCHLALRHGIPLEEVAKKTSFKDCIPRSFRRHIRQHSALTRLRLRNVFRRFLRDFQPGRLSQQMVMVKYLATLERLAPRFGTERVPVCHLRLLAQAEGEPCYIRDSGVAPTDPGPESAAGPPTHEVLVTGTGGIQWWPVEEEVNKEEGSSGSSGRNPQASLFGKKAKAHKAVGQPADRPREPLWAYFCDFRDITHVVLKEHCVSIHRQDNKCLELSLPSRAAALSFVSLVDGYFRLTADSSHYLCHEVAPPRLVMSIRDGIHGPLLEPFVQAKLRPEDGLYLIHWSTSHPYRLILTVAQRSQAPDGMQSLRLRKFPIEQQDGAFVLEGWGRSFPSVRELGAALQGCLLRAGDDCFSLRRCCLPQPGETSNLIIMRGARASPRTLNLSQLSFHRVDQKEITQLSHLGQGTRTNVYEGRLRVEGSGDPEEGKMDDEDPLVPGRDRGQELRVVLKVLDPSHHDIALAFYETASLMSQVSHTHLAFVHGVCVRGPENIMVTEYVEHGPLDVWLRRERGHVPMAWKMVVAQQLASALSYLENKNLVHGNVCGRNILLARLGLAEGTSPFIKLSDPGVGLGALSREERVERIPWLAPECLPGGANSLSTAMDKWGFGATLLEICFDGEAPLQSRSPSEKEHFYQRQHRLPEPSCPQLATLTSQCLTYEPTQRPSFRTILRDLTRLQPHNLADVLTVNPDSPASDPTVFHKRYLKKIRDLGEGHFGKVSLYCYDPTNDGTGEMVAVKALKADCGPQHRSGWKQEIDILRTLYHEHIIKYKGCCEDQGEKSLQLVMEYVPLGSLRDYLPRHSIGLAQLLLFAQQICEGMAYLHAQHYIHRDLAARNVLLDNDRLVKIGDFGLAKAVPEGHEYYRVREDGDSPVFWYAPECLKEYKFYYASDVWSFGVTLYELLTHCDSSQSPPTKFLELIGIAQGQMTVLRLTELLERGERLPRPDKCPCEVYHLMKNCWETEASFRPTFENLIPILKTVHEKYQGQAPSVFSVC
Experimental: as §1, §2, §3, §4

[4] = Lung and plasma exposure in mice after oral aspiration; type: in vivo; conditions: mouse, other: oral aspiration, 50 µg/animal; for concentration at 5 h: Balb/c mice, 1 mg/mL, 50 μL via oral aspiration
Experimental: Adult Balb/c mice from Harlan were used in the assay. […] Animals were placed in lateral recumbency post dose and monitored for full recovery from anesthesia before being returned to their home cage. Four hours later, animals were once again briefly anesthetized and challenged with either vehicle or IL-13 (0.03 μg total dose delivered, 50 μL total volume) via oral aspiration before being monitored for recovery from anesthesia and returned to their home cage. One hour after vehicle or IL-13 administration, whole blood and lungs were collected for both pSTAT6 detection in lung homogenates using a Perkin Elmer AlphaLISA® SureFire® Ultra™ HVp-STAT6 (Tyr641) assay kit and for total drug concentration analysis in both lung and plasma. Blood samples were centrifuged (Eppendorf centrifuge, 5804R) for 4 minutes at approximately 12,000 rpm at 4° C. to collect plasma. […] Plasma and lung levels of test compound were determined by LC-MS analysis against analytical standards constructed into a standard curve in the test matrix. A lung to plasma ratio was determined as the ratio of the lung concentration in ng/g to the plasma concentration in ng/mL at 5 hours.

[5] = tested on: TSLP-evoked TARC release in human peripheral blood mononuclear cells; test: Inhibition of TSLP-evoked TARC release in human peripheral blood mononuclear cells; type: cell-based; conditions: human PBMC, 3 to 5 donors, TSLP 10 ng/mL, 48 hours, ELISA; read-out: pIC50 ± st. dev., inhibition of TSLP-evoked TARC release (converted)
Text: Assay 4: Inhibition of TSLP-Evoked TARC Release in Human Peripheral Blood Mononuclear Cells
Thymic stromal lymphopoietin (TSLP) and thymus and activation-regulated chemokine (TARC) are overexpressed in asthmatic airways, and correlate with disease severity. In the lungs, TSLP may be released by bronchial epithelial cells in response to allergens and viral infections. TSLP signals through an IL-7Rα/TSLPR heterodimer found in a broad range of tissues and cell types, including epithelial cells, endothelial cells, neutrophils, macrophages, and mast cells. The binding of TSLP to its receptor induces a conformational change that activates JAK1 and JAK2 to phosphorylate various transcription factors, including STAT3 and STAT5. In immune cells, this triggers a cascade of intracellular events that result in cell proliferation, anti-apoptosis, dendritic cell migration, and production of Th2 cytokines and chemokines. In peripheral blood mononuclear cells (PBMC), TSLP has a proinflammatory effect by activating myeloid dendritic cells to attract and stimulate T cells, a process mediated by the chemoattractant TARC.
The potencies of the test compounds were measured for inhibition of TARC release.
PBMC aliquots (previously isolated from whole blood and frozen in aliquots at −80° C.) from 3 to 5 donors were thawed at 37° C. and added dropwise to 40 mL pre-warmed, sterile-filtered, complete RPMI media in 50 mL Falcon tubes. Cells were pelleted and resuspended in complete media at 2.24×10^6 cells/mL. […] Cells were allowed to rest for 1 hour at 37° C. with 5% CO2.
Compounds were received as 10 mM stock solutions in DMSO. 3.7-fold serial dilutions were performed to generate 9 concentrations of test compound in DMSO at 300× the final assay test concentration. […] 95 μL of 0.2% DMSO in complete media was added to the untreated control wells. Cells were pre-treated with compound for 1 hour at 37° C. with 5% CO2 prior to stimulation.
Immediately prior to use, an aliquot was thawed and prepared at 20× the final assay concentration in complete media. 10 μL of 20×TSLP was added to each well of PBMC, for a final assay concentration of 10 ng/mL. 10 μL of complete media was added to the unstimulated control wells. Cells were stimulated in the presence of compound for 48 hours at 37° C. with 5% CO2.
Following stimulation, the cell culture supernatants were harvested and TARC levels were detected by enzyme-linked immunosorbent assay (ELISA), using Human CCL17/TARC Quantikine ELISA Kit (R&D Systems # DDN00) according to the manufacturer's instructions.
For dose response analysis, the log [test compound (M)] was plotted versus the percent response values for each donor, and IC50 values were determined using a nonlinear regression analysis with GraphPad Prism Software using the 4-parameter sigmoidal dose-response algorithm with variable slope. Data are expressed as mean pIC50 (negative decadic logarithm IC50) values calculated from pIC50 values of individual donors and rounded to one decimal place.

Sequence of JAK1 (P23458 whole entry): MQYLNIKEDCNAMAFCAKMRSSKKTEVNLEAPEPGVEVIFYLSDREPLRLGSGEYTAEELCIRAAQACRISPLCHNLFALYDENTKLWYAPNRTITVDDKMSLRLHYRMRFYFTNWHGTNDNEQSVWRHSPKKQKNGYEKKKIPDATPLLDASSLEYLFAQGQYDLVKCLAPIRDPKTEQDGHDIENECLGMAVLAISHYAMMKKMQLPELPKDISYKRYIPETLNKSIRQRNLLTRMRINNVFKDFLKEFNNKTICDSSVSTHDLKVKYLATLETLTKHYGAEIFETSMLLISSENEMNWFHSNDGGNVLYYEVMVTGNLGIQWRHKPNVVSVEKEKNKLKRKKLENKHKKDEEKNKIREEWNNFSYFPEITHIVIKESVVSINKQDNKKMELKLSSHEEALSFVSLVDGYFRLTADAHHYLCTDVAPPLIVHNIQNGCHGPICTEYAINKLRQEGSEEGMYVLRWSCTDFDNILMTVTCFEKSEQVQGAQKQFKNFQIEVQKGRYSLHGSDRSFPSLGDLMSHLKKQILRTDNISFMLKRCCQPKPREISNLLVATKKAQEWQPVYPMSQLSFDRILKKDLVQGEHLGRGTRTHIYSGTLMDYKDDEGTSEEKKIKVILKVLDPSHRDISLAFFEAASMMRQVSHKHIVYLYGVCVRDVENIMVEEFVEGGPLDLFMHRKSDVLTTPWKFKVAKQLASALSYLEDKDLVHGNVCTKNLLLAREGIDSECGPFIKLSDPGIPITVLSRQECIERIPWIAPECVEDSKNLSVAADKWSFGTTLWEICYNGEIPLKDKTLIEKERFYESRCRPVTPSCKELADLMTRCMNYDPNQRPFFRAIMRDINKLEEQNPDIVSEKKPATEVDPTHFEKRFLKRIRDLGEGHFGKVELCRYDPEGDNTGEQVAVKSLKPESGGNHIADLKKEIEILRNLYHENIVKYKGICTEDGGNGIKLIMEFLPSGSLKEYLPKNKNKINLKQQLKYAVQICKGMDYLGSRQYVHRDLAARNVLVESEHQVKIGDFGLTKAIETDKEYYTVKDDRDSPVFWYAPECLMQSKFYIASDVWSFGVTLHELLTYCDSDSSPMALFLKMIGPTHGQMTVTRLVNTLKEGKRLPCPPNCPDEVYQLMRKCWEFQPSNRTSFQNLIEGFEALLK

CCc1cc(O)c(F)cc1-c1ccc2c(-c3nc4c([nH]3)CN(C(C)C)[C@H](C(=O)N3CC(N(C)C)C3)C4)n[nH]c2c1 [Example 8, (S)-(3-(dimethylamino)azetidin-1-yl)(2-(6-(2-ethyl-5-fluoro-4-hydroxyphenyl)-1H-indazol-3-yl)-5-isopropyl-4,5,6,7-tetrahydro-3H-imidazo[4,5-c]pyridin-6-yl)methanone]
JAK1 pKi [1]: 10.4 | JAK3 pKi [2]: 10.1 | Tyk2 pKi [3]: 9.5 | Kp at 5 h ([4]; Balb/c, lung and plasma, lung ng/g to plasma ng/mL, mice, read-out: Lung to Plasma ratio at 5 hr): 381 | concentration at 5 h ([4]; lung, read-out: Lung Concentration (ng/g) at 5 hr): 22100 ± 5550 ng/g | concentration at 5 h ([4]; plasma, read-out: Plasma Concentration (ng/mL) at 5 hr): 58 ± 17 ng/mL | IC50 [5]: 100 nM
